Consider one compound from patent publication US7429474B2, “2-O sulfatase compositions and methods of analyzing therewith” (Massachusetts Institute of Technology, priority 2003, dated 2008).

For this assay, the system named is Δ 4,5 glycuronidase. As to the kind of experiment: Δ 4,5 glycuronidase activity (loss of UV absorption at 232 nm). Format: biochemical, F. heparinum. Conditions: 2 mM substrate, 250 nM Δ 4,5 enzyme alone, 30° C. How it is done:
The substrate-product relationship between the two enzymes was examined by directly measuring Δ 4,5 glycuronidase activity either before or following the addition of recombinant 2-O sulfatase. Reactions were carried out at 30° C. and included 50 mM MES, pH 6.5, 100 mM NaCl, and 2 mM ΔU2SHNS in a 100 μL reaction volume. In these experiments, 250 nM Δ 4,5 glycuronidase and 25 nM 2-O ΔN^1-24 were sequentially added as follows: Δ 4,5 alone, Δ 4,5 followed by 2-O sulfatase, or 2-O sulfatase followed by Δ 4,5.
We hypothesized that, an obligatory substrate-product relationship between the 2-O sulfatase and the Δ 4,5 glycuronidase may exist. We examined a possible kinetic relationship between these two enzymes by looking at their sequential action (FIG. 7). In this experiment, Δ 4,5 glycuronidase activity was measured directly either […] or following the addition of the recombinant 2-O sulfatase using the disaccharide substrate ΔU2SHNS. […] In the reciprocal experiment (i.e., whereby the 2-O sulfatase was added second), we observed an initial lag in Δ 4,5 activity. This lag was followed by a linear Δ 4,5 activity, albeit at a slower rate than in the case where the 2-O sulfatase was added first. The observed delay in activity was presumably due to the prerequisite 2-O desulfation of the substrate which must occur prior to being acted on by the glycuronidase.

For `O=C(O)C1=C[C@H](O)[C@@H](OS(=O)(=O)O)[C@H](O[C@H]2[C@H](O)[C@@H](NS(=O)(=O)O)C(O)O[C@@H]2CO)O1` (stereo partly shown) [ΔU2SHNS], the glycuronidase-mediated hydrolysis result is listed as “completely refractory”.
